Experimental data as given in US20160045498A1, “METHODS OF TREATING DISEASES CHARACTERIZED BY EXCESSIVE WNT SIGNALLING” (THE WALTER AND ELIZA HALL INSTITUTE OF MEDICAL RESEARCH, priority 2013, published 2016).

How the values were obtained:
DLD1 cells = assay: DLD1 tumor xenografts; format: in vivo, mice (human DLD1 xenograft); conditions: DLD1 (high Wnt signaling), BALB/c nude mice, daily gavage 30 mg/kg from day 7
Experimental: (§1) c, d Tumour xenograft burden in BALB/c nude mice injected s.c. with DLD1 cells or RKO cells in PBS and receiving daily gavage with AZD1480 (30 mg/kg) or vehicle starting on the 7th day after cell inoculation. (*p≦0.0004; two sided t-test; n=8).

SW480 cells [1] = assay: Soft agar colony growth assay, SW480; format: cell-based, human; conditions: SW480, 10 days; AZD1480 1 μM, S3I-201 50 μM, IL11 10 ng/ml
Experimental: e Photograph of SW480 and SW480^APC CRC cells grown for 10 days under colony forming conditions in soft agar in the presence of vehicle or 1 μM of Jak2 inhibitor AZD1480 (Jak2i) (Scale bar=200 μm)
f Colony forming capacity of an isogenic pair of SW480 cells scored 10 days after the indicated treatment. (*p≦0.04; triplicate cultures and repeated).
(§2) SW480 and SW480^APC cells (Faux et al., 2004) were seeded in 2 ml of RPMI media supplemented with 10% FBS and 1% penicillin/streptomycin in 35 mm culture dishes at a density of 2×10^5 cells per dish. Three days later cultures were exposed to AZD1480 (1 μM) for 15 min. Co-immunofluorescence was then performed with antibodies to rabbit phospho-Stat3 (Tyr705, Santa Cruz #9134s, 1:200 dilution) and mouse β-catenin (Transduction Laboratories, 1:400). Colony formation assays of SW480 cells in soft agar were performed as described (Faux et al., 2004) in the presence of either AZD1480, (1 μM), the Stat3 inhibitor S3I-201 (Biovision, 50 μM) or recombinant human IL11 (Genetics Institute, 10 ng/ml). All experiments were performed in triplicates and repeated at least once. Vehicle was methylcellulose.

SW480 cells [2] = assay: p-STAT3 / β-CATENIN immunofluorescence and SOCS3 RT-qPCR in SW480 cells; format: cell-based, human
Experimental: d Immunofluorescence staining for β-CATENIN or tyrosine-705 phosphorylated STAT3 in an isogenic pair of SW480 cells grown in the presence of 1 μM AZD1480 (Jak2i) or vehicle. SW480 cells are APC mutant and lack expression of functional APC protein, while SW480^APC cells have been reconstituted to express wild-type APC. Scale bar=20 μm.
g RT-qPCR expression analysis for the STAT3 target gene SOCS3 in SW480 and SW480^APC CRC cells grown for 10 days under colony forming conditions in soft agar in the presence of the indicated treatment. Expression in the vehicle-treated cultures was arbitrarily set as 1. (*p≦0.04; triplicate cultures in each of two repeats).
as §2
Gene expression analysis by RT-qPCR was performed using the SybrGreen method (ABI) as described previously (Phesse et al., 2008). Fold change was calculated using the 2^−ΔΔCT method (Livak et al., 2001). Protein expression was analysed by Western blot by transferring SDS-PAGE separated protein lysates to nitrocellulose membrane and blocked either in 5% non-fat milk powder and probed with antibodies detecting p16 (Santa Cruz; #sc-467), Bmi1 (Millipore #[…]), Actin (Sigma; #A2066) or Gapdh (Santa Cruz; #sc-69778). All antibodies were diluted 1:1000 in BSA or non-fat milk powder and incubations were performed overnight.

intestinal tumours = assay: Treatment of ApcMin mice with established intestinal tumours; format: in vivo; conditions: Apc^Min mice treated daily 30 mg/kg from 6 to 12 weeks of age; increased in vehicle cohort
Text: Hematoxilin and Eosin-stained sections were scanned using an Aperio ScanScope XT (Aperio, USA) pathology slide scanner with a 20x PlanApo NA0.6 objective and areas of interest were extracted using Aperio ImageScope software v11.1.2.760. The area of individual tumors was outlined using MetaMorph v7.7.7 and standardized against the entire length of the colon section as described (Barker et al., 2009).

RKO cells = assay: RKO tumor xenografts; format: in vivo; conditions: RKO (low Wnt signaling), BALB/c nude mice, daily gavage 30 mg/kg from day 7
Experimental: as §1

SW480 cells [3] = assay: SW480 tumor xenografts; format: in vivo, human
Experimental: a Tumour xenograft burden in BALB/c nude mice injected s.c. with SW480 cells in matrigel and receiving daily gavage with AZD1480 (30 mg/kg) or vehicle starting on the 5th day after cell inoculation. (*p≦0.018; two sided t-test; n=12 mice), d Immunohistochemical analysis of p21 expression in xenograft tumours following 35 days of treatment with Jak2 inhibitor AZD1480 or vehicle. Scale bar=100 μm. e RT-qPCR expression analysis for SOCS3, p21 and CYCLIN D1 in SW480 xenografts from FIG. 5a and b (p=0.04; n=3 mice). One flank of female BALB/c nude mice was injected subcutaneously with 2×10^6 SW480 cells resuspended in Matrigel (BD Biosciences)/PBS (1:1) at a final volume of 200 μl. Once tumor became palpable (>100 mm^3) approximately 5 days later, mice received continuous daily gavage of the Jak2 inhibitor AZD1480 ([…] et al., 2009) (30 mg/kg, a gift from Astra-Zeneca). Gene expression analysis by RT-qPCR was performed using the SybrGreen method (ABI) as described previously ([…] et al., 2008). Fold change was calculated using the 2^-ΔΔCT method (Livak et al., 2001). Protein expression was analysed by Western blot by transferring SDS-PAGE separated protein lysates to nitrocellulose membrane and blocked either in 5% non-fat milk powder and probed with antibodies detecting p16 (Santa Cruz; #sc-467), Bmi1 (Millipore #[…]), Actin (Sigma; #A2066) or Gapdh (Santa Cruz; #sc-69778). All antibodies were diluted 1:1000 in BSA or non-fat milk powder and incubations were performed overnight. Tissues were fixed and immunohistochemistry performed as described previously (Sansom et al., 2007). Primary antibodies used were rabbit phospho-Stat3 to Tyr705 (Santa Cruz #9134s, 1:150), mouse β-catenin (Transduction Laboratories, 1:300), rabbit PCNA (Santa Cruz #7907, 1:100), rabbit […] (Santa Cruz N-262. Lot #C1309, 1:200), and goat p21 (Santa Cruz #Sc-397-G; 1:100).

Cc1cc(Nc2nc(N[C@@H](C)c3ncc(F)cn3)ncc2Cl)n[nH]1 [AZD1480]
xenograft growth (DLD1 cells): sufficient to reduce xenograft growth
colony formation in soft agar (SW480 cells [1]): strongly impaired
accumulation of nuclear β-CATENIN (SW480 cells [2]; APC-deficient SW480, 1 μM AZD1480): did not diminish
accumulation of activated (phosphorylated) p-STAT3 (SW480 cells [2]; SW480, 1 μM AZD1480): reduced accumulation
SOCS3 expression (SW480 cells [2]; SW480, RT-qPCR, AZD1480 1 μM, IL11 10 ng/ml): reduced SOCS3 expression
total tumour area (intestinal tumours): remained remarkably constant
tumour number (intestinal tumours): remained remarkably constant
xenograft tumor growth (RKO cells): did not result in reduced tumor growth
growth of established SW480 tumours (SW480 cells [3]; BALB/c nude mice, s.c., daily gavage 30 mg/kg from day 5): reduced the growth
CYCLIND1 expression (RT-qPCR) (SW480 cells [3]; RNA from SW480 xenografts): decrease
SOCS3 expression (RT-qPCR) (SW480 cells [3]; RNA from SW480 xenografts): decrease
p21 expression (RT-qPCR) (SW480 cells [3]; RNA from SW480 xenografts): increased
p21 expression in tumours (immunohistochemistry) (SW480 cells [3]; SW480 xenografts, 35 days of treatment, vs vehicle): increased
